Key:
gelatinase A = target: T1, gelatinase A (Homo sapiens, UniProt P08253); experiment: Inhibition of gelatinase A (72 kDa gelatinase); type: biochemical; settings: statement in words, no value given
T1 construct: endogenous in cells; host or cells: RPMI-7951 cells (endogenous enzyme, purified by gelatin-agarose chromatography)
T1 sequence (P08253 110-660): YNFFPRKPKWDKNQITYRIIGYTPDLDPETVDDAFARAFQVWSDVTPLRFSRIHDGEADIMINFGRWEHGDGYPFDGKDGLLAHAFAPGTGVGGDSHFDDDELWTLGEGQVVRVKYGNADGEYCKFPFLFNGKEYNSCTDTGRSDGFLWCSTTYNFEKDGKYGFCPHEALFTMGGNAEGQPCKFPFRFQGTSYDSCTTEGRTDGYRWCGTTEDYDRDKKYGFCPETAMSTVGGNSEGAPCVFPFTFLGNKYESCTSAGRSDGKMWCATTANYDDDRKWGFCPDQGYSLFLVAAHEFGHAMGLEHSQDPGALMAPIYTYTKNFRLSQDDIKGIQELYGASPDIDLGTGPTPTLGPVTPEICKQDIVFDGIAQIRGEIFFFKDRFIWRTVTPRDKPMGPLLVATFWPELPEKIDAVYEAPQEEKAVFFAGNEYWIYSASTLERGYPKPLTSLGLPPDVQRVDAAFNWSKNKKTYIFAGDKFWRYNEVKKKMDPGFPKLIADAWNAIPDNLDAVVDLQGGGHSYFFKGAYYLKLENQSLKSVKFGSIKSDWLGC
Description: The potency of compounds of the invention as inhibitors of 72 kDa gelatinase may be determined by a procedure based on the method of Sellers et. al, Biochem. J., 171, 493-496 (1979). 72 kDa gelatinase, derived from RPMI-7951 cells is purified by gelatin-agarose chromatography. The enzyme is activated by incubation with aminophenyl mercuric acetate and approximately 0.05 units is incubated with 50μg [^14C]-radiolabellet gelatin in an appropriate buffer for 16 hours at 37° C. At the end of the incubation 50μg bovine serum albumin, together with trichloroacetic acid (final concentration 16%) are added to stop the reaction and to precipitate any undegraded substrate. The reaction tubes are placed on ice for 15 minutes before centrifugation at 10,000g for 15 minutes to sediment the precipitated substrate. A 200μl aliquot of the reaction supernatant is removed and the radioactivity determined by liquid scintillation counting. The effect of the inhibitors is determined by reference to a dose response curve. The IC50 (the concentration of inhibitor required to cause a 50% decrease in enzyme activity) is obtained by fitting a curve to the data and computing the concentration of inhibitor required to achieve 50% inhibition of the enzyme. For each IC50 determination, the effect on gelatinase activity of at least 8 concentrations of the inhibitor are examined. […]

collagenase-3 (MMP-13) = collagenase-3 (MMP-13) (Homo sapiens, UniProt P45452); experiment: Inhibition of collagenase-3 (MMP-13); type: biochemical; settings: statement in words, no value given
Description: The potency of compounds of the invention as inhibitors of collagenase may be determined by the procedure of Cawston and Barrett, (Anal. Biochem., 99, 340-345, 1979), whereby a 1mM solution of the compound being tested, or a dilution thereof, is incubated at 37° for 16 hours with collagen and collagenase (buffered with 25mM Hepes, pH 7.5 containing 5mM CaCl2, 0.05% Brij 35 and 0.02% NaN3). The collagen is acetylated ^14C collagen prepared by the method of Cawston and Murphy, (Methods in Enzymology, 80, 711, 1981). The samples are centrifuged to sediment undigested collagen, and an aliquot of the radioactive supernatant removed for assay on a scintillation counter as a measure of hydrolysis. The collagenase activity in the presence of 1mM of the test compound, or a dilution thereof, is compared to activity in a control devoid of inhibitor and the result reported as that of inhibitor concentration effecting 50% inhibition of the collagenase activity (IC50). The potency of compounds of the invention as inhibitors of stromelysin may be determined by the procedure of Cawston et al, (Biochem. J., 195, 159-165, 1981), whereby a 1mM solution of the compound being tested, or a dilution thereof, is incubated at 37° for 16 hours with stromelysin and ^14C acetylate casein (buffered with 25mM Hepes, pH 7.5 containing 5mM CaCl2, 0.05% Brij 35 and 0.02% NaN3). […]

`O=C(CC(Cc1ccccc1)S(=O)(=O)N1CCC(Cc2ccccc2)CC1)NO` (centres unmarked) [Example 2, 3-(4-Benzyl-piperidine-1-sulfonyl)-N-Hydroxy-4-phenyl-butyramide] was tested, and the “inhibitor of gelatinase A” value (gelatinase A) was “inhibitor of gelatinase A”.
`O=C(CC(Cc1ccccc1)S(=O)(=O)N1CCC(COc2ccc(F)cc2)CC1)NO` (centres unmarked) [Example 6, 3-[4-(4-Fluoro-phenoxymethyl)-piperidine-1-sulfonyl]-N-hydroxy-4-phenyl-butyramide] was tested, and the “inhibitor of collagenase-3 (MMP-13)” value (collagenase-3 (MMP-13)) was “inhibitor of collagenase-3 (MMP-13)”.
